# Laboratory results from ChEMBL document CHEMBL5550120, “SuFEx-based chemical diversification for the systematic discovery of CRBN molecular glues” (Bioorg Med Chem, 2024).
# Calls of active or inactive are those of the source. No cut-off for these calls is given here.
# Tested on: MOLT-4
# Experiment: Antiproliferative activity against wild type human MOLT-4 cells assessed as reduction in cell viability measured after 3 days by ATP-dependent luminescence assay
# Format: functional, cell-based
# Conditions: MOLT-4, 72 h
row,Compound,EC50
1,CC(C)CCOc1ccccc1OCCNS(=O)(=O)Nc1ccc2c(c1)CN(C1CCC(=O)NC1=O)C2=O (stereo unspecified),60 nM

# Tested on: MV4-11
# Experiment: Antiproliferative activity against wild type human MV4-11 cells assessed as reduction in cell viability measured after 3 days by ATP-dependent luminescence assay
# Format: functional, cell-based
# Conditions: MV4-11, 72 h
row,Compound,EC50
1,CC(C)CCOc1ccccc1OCCNS(=O)(=O)Nc1ccc2c(c1)CN(C1CCC(=O)NC1=O)C2=O (stereo unspecified),40 nM

# Tested on: BE(2)-C
# Experiment: Antiproliferative activity against wild type human BE2C cells assessed as reduction in cell viability measured after 3 days by ATP-dependent luminescence assay
# Format: functional, cell-based
# Conditions: 72 h
row,Compound,EC50
1,CC(C)CCOc1ccccc1OCCNS(=O)(=O)Nc1ccc2c(c1)CN(C1CCC(=O)NC1=O)C2=O (stereo unspecified),13000 nM

# Molecular target: T1, Protein cereblon/Eukaryotic peptide chain release factor GTP-binding subunit ERF3A (Homo sapiens, UniProt Q96SW2+P15170)
# Experiment: Molecular glue activity at CRBN/HiBiT-tagged GSPT1 in human MOLT-4 cells assessed as induction of GSPT1 degradation measured after 3 hrs by immunoblot analysis
# Format: cell-based
# Conditions: not given
# Target sequence in this assay (Q96SW2 whole entry): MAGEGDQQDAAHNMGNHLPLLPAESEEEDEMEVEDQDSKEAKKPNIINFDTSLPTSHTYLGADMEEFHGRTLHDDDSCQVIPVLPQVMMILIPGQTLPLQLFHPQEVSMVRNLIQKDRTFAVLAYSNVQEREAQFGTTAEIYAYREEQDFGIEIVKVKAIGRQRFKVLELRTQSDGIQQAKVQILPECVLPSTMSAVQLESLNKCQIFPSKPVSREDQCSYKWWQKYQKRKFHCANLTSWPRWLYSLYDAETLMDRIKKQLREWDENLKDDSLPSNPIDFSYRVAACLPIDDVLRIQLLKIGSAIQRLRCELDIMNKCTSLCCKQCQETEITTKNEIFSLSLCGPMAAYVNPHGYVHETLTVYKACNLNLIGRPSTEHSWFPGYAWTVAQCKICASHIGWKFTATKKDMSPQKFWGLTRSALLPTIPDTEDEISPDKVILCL
# Target sequence in this assay (P15170 whole entry): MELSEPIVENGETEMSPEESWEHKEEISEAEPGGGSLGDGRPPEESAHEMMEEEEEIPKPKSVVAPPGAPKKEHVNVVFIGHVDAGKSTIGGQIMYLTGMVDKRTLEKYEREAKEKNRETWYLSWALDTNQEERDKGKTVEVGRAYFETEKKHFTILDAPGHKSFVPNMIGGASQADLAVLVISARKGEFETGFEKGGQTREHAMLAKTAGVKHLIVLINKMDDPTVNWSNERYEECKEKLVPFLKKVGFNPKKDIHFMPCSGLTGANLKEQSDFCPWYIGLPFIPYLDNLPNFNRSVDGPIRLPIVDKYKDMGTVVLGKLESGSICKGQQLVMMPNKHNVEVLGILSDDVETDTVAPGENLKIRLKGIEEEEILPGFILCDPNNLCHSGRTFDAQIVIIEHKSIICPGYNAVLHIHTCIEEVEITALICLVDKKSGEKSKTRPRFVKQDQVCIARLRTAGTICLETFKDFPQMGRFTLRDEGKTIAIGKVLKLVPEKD
row,Compound,DC50
1,CC(C)CCOc1ccccc1OCCNS(=O)(=O)Nc1ccc2c(c1)CN(C1CCC(=O)NC1=O)C2=O (stereo unspecified),90 nM

# Molecular target: T1, Protein cereblon/Eukaryotic peptide chain release factor GTP-binding subunit ERF3A
# Experiment: Molecular glue activity at CRBN/HiBiT-tagged GSPT1 in wild type human MV4-11 cells assessed as induction of GSPT1 degradation measured after 3 hrs by immunoblot analysis
# Format: cell-based
# Conditions: not given
# Target sequence in this assay (Q96SW2 whole entry): as the sequence (Q96SW2 whole entry) above
# Target sequence in this assay (P15170 whole entry): as the sequence (P15170 whole entry) above
row,Compound,DC50
1,CC(C)CCOc1ccccc1OCCNS(=O)(=O)Nc1ccc2c(c1)CN(C1CCC(=O)NC1=O)C2=O (stereo unspecified),120 nM

# Molecular target: T1, Protein cereblon/Eukaryotic peptide chain release factor GTP-binding subunit ERF3A
# Experiment: Molecular glue activity at CRBN/HiBiT-tagged GSPT1 in wild type human BE2C cells assessed as induction of GSPT1 degradation measured after 3 hrs by immunoblot analysis
# Format: cell-based
# Conditions: not given
# Target sequence in this assay (Q96SW2 whole entry): as the sequence (Q96SW2 whole entry) above
# Target sequence in this assay (P15170 whole entry): as the sequence (P15170 whole entry) above
row,Compound,DC50
1,CC(C)CCOc1ccccc1OCCNS(=O)(=O)Nc1ccc2c(c1)CN(C1CCC(=O)NC1=O)C2=O (stereo unspecified),14000 nM

# Tested on: not listed separately
# Experiment: Selectivity index, ratio of EC50 for antiproliferative activity against human BE2C cells to EC50 for antiproliferative activity against human MOLT-4 cells
# Format: functional
# Conditions: not given
row,Compound,Ratio EC50
1,CC(C)CCOc1ccccc1OCCNS(=O)(=O)Nc1ccc2c(c1)CN(C1CCC(=O)NC1=O)C2=O (stereo unspecified),~100

# Tested on: not listed separately
# Experiment: Selectivity index, ratio of EC50 for antiproliferative activity against human BE2C cells to EC50 for antiproliferative activity against human MV4-11 cells
# Format: functional
# Conditions: not given
row,Compound,Ratio EC50
1,CC(C)CCOc1ccccc1OCCNS(=O)(=O)Nc1ccc2c(c1)CN(C1CCC(=O)NC1=O)C2=O (stereo unspecified),~100

# Tested on: MOLT-4
# Experiment: Antiproliferative activity against CRBN depleted human MOLT-4 cells assessed as reduction in cell viability measured after 3 days by ATP-dependent luminescence assay
# Format: functional, cell-based
# Conditions: time 3.0 day
row,Compound,Activity
1,CC(C)CCOc1ccccc1OCCNS(=O)(=O)Nc1ccc2c(c1)CN(C1CCC(=O)NC1=O)C2=O (stereo unspecified),inactive

# Tested on: MOLT-4
# Experiment: Antiproliferative activity against human MOLT-4 cells harboring GSPT1 G575N mutant assessed as reduction in cell viability measured after 3 days by ATP-dependent luminescence assay
# Format: functional, cell-based
# Conditions: time 3.0 day
row,Compound,Activity
1,CC(C)CCOc1ccccc1OCCNS(=O)(=O)Nc1ccc2c(c1)CN(C1CCC(=O)NC1=O)C2=O (stereo unspecified),inactive

# Tested on: MV4-11
# Experiment: Antiproliferative activity against CRBN depleted human MV4-11 cells assessed as reduction in cell viability measured after 3 days by ATP-dependent luminescence assay
# Format: functional, cell-based
# Conditions: time 3.0 day
row,Compound,Activity
1,CC(C)CCOc1ccccc1OCCNS(=O)(=O)Nc1ccc2c(c1)CN(C1CCC(=O)NC1=O)C2=O (stereo unspecified),inactive

# Tested on: MV4-11
# Experiment: Antiproliferative activity against human MV4-11 cells harboring GSPT1 G575N mutant assessed as reduction in cell viability measured after 3 days by ATP-dependent luminescence assay
# Format: functional, cell-based
# Conditions: time 3.0 day
row,Compound,Activity
1,CC(C)CCOc1ccccc1OCCNS(=O)(=O)Nc1ccc2c(c1)CN(C1CCC(=O)NC1=O)C2=O (stereo unspecified),inactive

# Tested on: BE(2)-C
# Experiment: Antiproliferative activity against CRBN depleted human BE2C cells assessed as reduction in cell viability measured after 3 days by ATP-dependent luminescence assay
# Format: functional, cell-based
# Conditions: time 3.0 day
row,Compound,Activity
1,CC(C)CCOc1ccccc1OCCNS(=O)(=O)Nc1ccc2c(c1)CN(C1CCC(=O)NC1=O)C2=O (stereo unspecified),inactive

# Tested on: BE(2)-C
# Experiment: Antiproliferative activity against human BE2C cells harboring GSPT1 G575N mutant assessed as reduction in cell viability measured after 3 days by ATP-dependent luminescence assay
# Format: functional, cell-based
# Conditions: time 3.0 day
row,Compound,Activity
1,CC(C)CCOc1ccccc1OCCNS(=O)(=O)Nc1ccc2c(c1)CN(C1CCC(=O)NC1=O)C2=O (stereo unspecified),inactive

# Molecular target: T1, Protein cereblon/Eukaryotic peptide chain release factor GTP-binding subunit ERF3A
# Experiment: Molecular glue activity at CRBN/GSPT1 in CRBN depleted human MOLT-4 cells assessed as induction of GSPT1 degradation at 3 uM measured after 3 hrs by immunoblot analysis
# Format: cell-based
# Conditions: not given
# Target sequence in this assay (P15170 whole entry, looked up): as the sequence (P15170 whole entry) above
# Target sequence in this assay (Q96SW2 whole entry, looked up): as the sequence (Q96SW2 whole entry) above
row,Compound,Activity
1,CC(C)CCOc1ccccc1OCCNS(=O)(=O)Nc1ccc2c(c1)CN(C1CCC(=O)NC1=O)C2=O (stereo unspecified),inactive

# Molecular target: T1, Protein cereblon/Eukaryotic peptide chain release factor GTP-binding subunit ERF3A
# Experiment: Molecular glue activity at CRBN/GSPT1 in human MOLT-4 cells harboring GSPT1 G575N mutant assessed as induction of GSPT1 degradation at 3 uM measured after 3 hrs by immunoblot analysis
# Format: cell-based
# Conditions: not given
# Target sequence in this assay (P15170 whole entry, looked up): as the sequence (P15170 whole entry) above
# Target sequence in this assay (Q96SW2 whole entry, looked up): as the sequence (Q96SW2 whole entry) above
row,Compound,Activity
1,CC(C)CCOc1ccccc1OCCNS(=O)(=O)Nc1ccc2c(c1)CN(C1CCC(=O)NC1=O)C2=O (stereo unspecified),inactive

# Molecular target: T1, Protein cereblon/Eukaryotic peptide chain release factor GTP-binding subunit ERF3A
# Experiment: Molecular glue activity at CRBN/GSPT1 in CRBN depleted human MV4-11 cells assessed as induction of GSPT1 degradation at 3 uM measured after 3 hrs by immunoblot analysis
# Format: cell-based
# Conditions: not given
# Target sequence in this assay (P15170 whole entry, looked up): as the sequence (P15170 whole entry) above
# Target sequence in this assay (Q96SW2 whole entry, looked up): as the sequence (Q96SW2 whole entry) above
row,Compound,Activity
1,CC(C)CCOc1ccccc1OCCNS(=O)(=O)Nc1ccc2c(c1)CN(C1CCC(=O)NC1=O)C2=O (stereo unspecified),inactive

# Molecular target: T1, Protein cereblon/Eukaryotic peptide chain release factor GTP-binding subunit ERF3A
# Experiment: Molecular glue activity at CRBN/GSPT1 in human MV4-11 cells harboring GSPT1 G575N mutant assessed as induction of GSPT1 degradation at 3 uM measured after 3 hrs by immunoblot analysis
# Format: cell-based
# Conditions: not given
# Target sequence in this assay (P15170 whole entry, looked up): as the sequence (P15170 whole entry) above
# Target sequence in this assay (Q96SW2 whole entry, looked up): as the sequence (Q96SW2 whole entry) above
row,Compound,Activity
1,CC(C)CCOc1ccccc1OCCNS(=O)(=O)Nc1ccc2c(c1)CN(C1CCC(=O)NC1=O)C2=O (stereo unspecified),inactive

# Molecular target: T1, Protein cereblon/Eukaryotic peptide chain release factor GTP-binding subunit ERF3A
# Experiment: Molecular glue activity at CRBN/GSPT1 in CRBN depleted human BE2C cells assessed as induction of GSPT1 degradation at 3 uM measured after 3 hrs by immunoblot analysis
# Format: cell-based
# Conditions: not given
# Target sequence in this assay (P15170 whole entry, looked up): as the sequence (P15170 whole entry) above
# Target sequence in this assay (Q96SW2 whole entry, looked up): as the sequence (Q96SW2 whole entry) above
row,Compound,Activity
1,CC(C)CCOc1ccccc1OCCNS(=O)(=O)Nc1ccc2c(c1)CN(C1CCC(=O)NC1=O)C2=O (stereo unspecified),inactive

# Molecular target: T1, Protein cereblon/Eukaryotic peptide chain release factor GTP-binding subunit ERF3A
# Experiment: Molecular glue activity at CRBN/GSPT1 in human BE2C cells harboring GSPT1 G575N mutant assessed as induction of GSPT1 degradation at 3 uM measured after 3 hrs by immunoblot analysis
# Format: cell-based
# Conditions: not given
# Target sequence in this assay (P15170 whole entry, looked up): as the sequence (P15170 whole entry) above
# Target sequence in this assay (Q96SW2 whole entry, looked up): as the sequence (Q96SW2 whole entry) above
row,Compound,Activity
1,CC(C)CCOc1ccccc1OCCNS(=O)(=O)Nc1ccc2c(c1)CN(C1CCC(=O)NC1=O)C2=O (stereo unspecified),inactive

# Molecular target: T1, Protein cereblon/Eukaryotic peptide chain release factor GTP-binding subunit ERF3A
# Experiment: Molecular glue activity at CRBN/HiBiT-tagged GSPT1 in human MOLT-4 cells assessed as induction of GSPT1 degradation at 3 uM pretreated with pomalidomide at 25 uM for 1 hr followed by compound treatment and measured after 3 hrs by immunoblot analysis
# Format: cell-based
# Conditions: not given
row,Compound,Activity
1,CC(C)CCOc1ccccc1OCCNS(=O)(=O)Nc1ccc2c(c1)CN(C1CCC(=O)NC1=O)C2=O (stereo unspecified),inactive

# Molecular target: T1, Protein cereblon/Eukaryotic peptide chain release factor GTP-binding subunit ERF3A
# Experiment: Molecular glue activity at CRBN/HiBiT-tagged GSPT1 in human MV4-11 cells assessed as induction of GSPT1 degradation at 3 uM pretreated with pomalidomide at 25 uM for 1 hr followed by compound treatment and measured after 3 hrs by immunoblot analysis
# Format: cell-based
# Conditions: not given
row,Compound,Activity
1,CC(C)CCOc1ccccc1OCCNS(=O)(=O)Nc1ccc2c(c1)CN(C1CCC(=O)NC1=O)C2=O (stereo unspecified),inactive

# Molecular target: T1, Protein cereblon/Eukaryotic peptide chain release factor GTP-binding subunit ERF3A
# Experiment: Molecular glue activity at CRBN/HiBiT-tagged GSPT1 in human BE2C cells assessed as induction of GSPT1 degradation at 3 uM pretreated with pomalidomide at 25 uM for 1 hr followed by compound treatment and measured after 3 hrs by immunoblot analysis
# Format: cell-based
# Conditions: not given
row,Compound,Activity
1,CC(C)CCOc1ccccc1OCCNS(=O)(=O)Nc1ccc2c(c1)CN(C1CCC(=O)NC1=O)C2=O (stereo unspecified),inactive

# Molecular target: T1, Protein cereblon/Eukaryotic peptide chain release factor GTP-binding subunit ERF3A
# Experiment: Molecular glue activity at CRBN/HiBiT-tagged GSPT1 in human MOLT-4 cells assessed as induction of GSPT1 degradation at 3 uM pretreated with MLN4924 at 1 uM for 1 hr followed by compound treatment and measured after 3 hrs by immunoblot analysis
# Format: cell-based
# Conditions: not given
row,Compound,Activity
1,CC(C)CCOc1ccccc1OCCNS(=O)(=O)Nc1ccc2c(c1)CN(C1CCC(=O)NC1=O)C2=O (stereo unspecified),inactive

# Molecular target: T1, Protein cereblon/Eukaryotic peptide chain release factor GTP-binding subunit ERF3A
# Experiment: Molecular glue activity at CRBN/HiBiT-tagged GSPT1 in human MV4-11 cells assessed as induction of GSPT1 degradation at 3 uM pretreated with MLN4924 at 1 uM for 1 hr followed by compound treatment and measured after 3 hrs by immunoblot analysis
# Format: cell-based
# Conditions: not given
row,Compound,Activity
1,CC(C)CCOc1ccccc1OCCNS(=O)(=O)Nc1ccc2c(c1)CN(C1CCC(=O)NC1=O)C2=O (stereo unspecified),inactive

# Molecular target: T1, Protein cereblon/Eukaryotic peptide chain release factor GTP-binding subunit ERF3A
# Experiment: Molecular glue activity at CRBN/HiBiT-tagged GSPT1 in human BE2C cells assessed as induction of GSPT1 degradation at 3 uM pretreated with MLN4924 at 1 uM for 1 hr followed by compound treatment and measured after 3 hrs by immunoblot analysis
# Format: cell-based
# Conditions: not given
row,Compound,Activity
1,CC(C)CCOc1ccccc1OCCNS(=O)(=O)Nc1ccc2c(c1)CN(C1CCC(=O)NC1=O)C2=O (stereo unspecified),inactive

# Molecular target: T1, Protein cereblon/Eukaryotic peptide chain release factor GTP-binding subunit ERF3A
# Experiment: Molecular glue activity at CRBN/HiBiT-tagged GSPT1 in human MOLT-4 cells assessed as induction of GSPT1 degradation at 3 uM pretreated with carfilzomib at 500 nM for 1 hr followed by compound treatment and measured after 3 hrs by immunoblot analysis
# Format: cell-based
# Conditions: not given
row,Compound,Activity
1,CC(C)CCOc1ccccc1OCCNS(=O)(=O)Nc1ccc2c(c1)CN(C1CCC(=O)NC1=O)C2=O (stereo unspecified),inactive

# Molecular target: T1, Protein cereblon/Eukaryotic peptide chain release factor GTP-binding subunit ERF3A
# Experiment: Molecular glue activity at CRBN/HiBiT-tagged GSPT1 in human MV4-11 cells assessed as induction of GSPT1 degradation at 3 uM pretreated with carfilzomib at 500 nM for 1 hr followed by compound treatment and measured after 3 hrs by immunoblot analysis
# Format: cell-based
# Conditions: not given
row,Compound,Activity
1,CC(C)CCOc1ccccc1OCCNS(=O)(=O)Nc1ccc2c(c1)CN(C1CCC(=O)NC1=O)C2=O (stereo unspecified),inactive

# Molecular target: T1, Protein cereblon/Eukaryotic peptide chain release factor GTP-binding subunit ERF3A
# Experiment: Molecular glue activity at CRBN/HiBiT-tagged GSPT1 in human BE2C cells assessed as induction of GSPT1 degradation at 3 uM pretreated with carfilzomib at 500 nM for 1 hr followed by compound treatment and measured after 3 hrs by immunoblot analysis
# Format: cell-based
# Conditions: not given
row,Compound,Activity
1,CC(C)CCOc1ccccc1OCCNS(=O)(=O)Nc1ccc2c(c1)CN(C1CCC(=O)NC1=O)C2=O (stereo unspecified),inactive

# Tested on: MV4-11
# Experiment: Downregulation of GSPT1 protein abundance in human MV4-11 cells at 3 uM measured after 3 hrs by proteomics analysis
# Format: functional, cell-based
# Conditions: not given
row,Compound,Activity
1,CC(C)CCOc1ccccc1OCCNS(=O)(=O)Nc1ccc2c(c1)CN(C1CCC(=O)NC1=O)C2=O (stereo unspecified),Active

# Tested on: MV4-11
# Experiment: Downregulation of GSPT2 protein abundance in human MV4-11 cells at 3 uM measured after 3 hrs by proteomics analysis
# Format: functional, cell-based
# Conditions: not given
row,Compound,Activity
1,CC(C)CCOc1ccccc1OCCNS(=O)(=O)Nc1ccc2c(c1)CN(C1CCC(=O)NC1=O)C2=O (stereo unspecified),Active
